This passage reports herbicidal effectiveness results from paper PMC10691210 (Proceedings of the National Academy of Sciences of the …, 2023).

SMILES strings stand for the structures.

For the assay, the system named is whole plants. Put plainly: Herbicidal activity on whole plants. Format: in vivo.

In the case of `Cc1nc2c(F)c(F)ccc2cc1Oc1cccc(F)c1C(C)(C)O` [ipflufenoquin], the herbicidal effectiveness result is “ineffective”.
